Test results taken from the supplement of paper PMC8671470.
± gives the standard deviation of the averaged measurements.

Assays:
Details in all cases: 72 h
HL-60 [1] = assay: cell viability (% survival relative to DMSO control); higher = less cytotoxic
Outline: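 Area under the curve, where listed, was derived from four-parameter log-logistic fits with drc and PharmacoGx. These fits used CellTiter-Glo viability from HL-60 cells in RPMI 1640 with 10% FBS, normalised to DMSO wells and wells holding 10 μM proteasome inhibitor. The full library was rescreened on 384-well plates in duplicate at five tenfold concentrations, 1–10,000 nM, with DMSO or 100 nM of one of three metabolic inhibitors, for 72 h at 37 °C, 5% CO2.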

THP-1 = assay: cell viability (% survival relative to DMSO control, bortezomib = 0%); higher = less cytotoxic
Outline: (§1)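 Reported values are percent survival from duplicate wells, averaged. Fifteen myeloid leukaemia cell lines were treated in 384-well plates with compounds at 1, 10, 100, 1000 or 10000 nM for 72 h at 37 °C in 5% CO2. Signals from CellTiter-Glo luminescence were scaled with vehicle as 100% and a 10 µM positive control as 0%.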

NOMO-1 = assay: as above
Outline: as §1

SHI-1 = assay: as above
Outline: as §1

K-562 = assay: as above
Outline: as §1

LAMA-84 = assay: as above
Outline: as §1

BV-173 = assay: as above
Outline: as §1

HEL = assay: as above
Outline: as §1

HL-60 [2] = assay: as above
Outline: as §1

ML-2 = assay: as above
Outline: as §1

KCL-22 = assay: as above
Outline: as §1

KG-1 = assay: as above
Outline: as §1

MOLM-13 = assay: as above
Outline: as §1

KU-812 = assay: as above
Outline: as §1

MV4-11 [3] = assay: as above
Outline: as §1

Mono-Mac-6 = assay: as above
Outline: as §1

MV4-11 [4] = system: MV4-11
Outline: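 In 384-well plates holding acoustically pre-printed compounds at five tenfold doses from 1 to 10,000 nM, in duplicate, fifteen myeloid leukaemia cell lines were grown in RPMI 1640 for 72 h at 37 °C with 5% CO2. Luminescent ATP viability was scaled between vehicle and a positive control at 10 µM. The IC50 was then taken from log-logistic dose–response fits with four parameters.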

CCCC(CCC)C(=O)O [Valproic acid]
cell viability [%], HL-60 [1]
Details	0.001 µM	0.01 µM	0.1 µM	1 µM	10 µM
co-treatment: AZD3965 100 nM	101.96 ± 0.094	103 ± 2.8	94.7 ± 4.1	97.8 ± 5.3	106 ± 7.5
co-treatment: DMSO vehicle	102 ± 4.8	99.9 ± 6	98.5 ± 2.7	96.68 ± 0.64	105 ± 4.8
co-treatment: GSK2194069 100 nM	95.2 ± 3	106 ± 14	98.1 ± 1.8	93.9 ± 13	106 ± 4.2
co-treatment: pictilisib 100 nM	98.6 ± 5.1	101 ± 8.1	95 ± 1.9	89.6 ± 5.2	101 ± 6.5

cell viability [%]
Details	1 nM	10 nM	100 nM	1000 nM	10000 nM
BV-173	88.5	93.5	87.8	104	90.6
HEL	119	103	94.5	108	106
HL-60 [2]	87.3	96.2	99.2	87.9	103
K-562	107	95.7	98.6	109	112
KCL-22	108	94.1	96.2	127	95.5
KG-1	90.2	98.7	93	90.4	108
KU-812	95.6	86.5	92.6	99.5	97.2
LAMA-84	106	91.7	96.2	102	106
ML-2	106	95.6	93	99.3	91.5
MOLM-13	105	100	100	76	105
MV4-11 [3]	111	86.6	102	96.6	97.5
Mono-Mac-6	96.3	98.2	98.3	105	99.1
NOMO-1	93.8	93.6	94.6	98.5	104
SHI-1	106	94.8	95.9	92.5	101
THP-1	104	93.2	93.7	102	91.2

Details	IC50 (cell viability) [µM]
MV4-11 [4]	> 10
